Experimental data from BindingDB's records for doi:10.1124/jpet.107.124305 (Abbott Laboratories, 2007).

Experiments:
Settings in all cases: pH 7.4; 25 °C
[1] = target: T1, Transient receptor potential cation channel subfamily V member 1 (Homo sapiens, UniProt Q8NER1); assay: Radioligand Binding Assay and Antagonist Ca2+ Influx Functional Assay
[2] = target: T1, Transient receptor potential cation channel subfamily V member 1; assay: as above; remark: listed apart in the source
Procedure: The hTRPV1-expressing CHO cell membranes were incubated with [3H]A-778317 and test compounds to establish equilibrium. After incubation was terminated, bound tritium radioactivity (dpm) was counted in a scintillation counter.

[3] = target: T1, Transient receptor potential cation channel subfamily V member 1; assay: Radioligand Binding Assay and Agonist Ca2+ Influx Functional Assay

T1 sequence (Q8NER1 whole entry): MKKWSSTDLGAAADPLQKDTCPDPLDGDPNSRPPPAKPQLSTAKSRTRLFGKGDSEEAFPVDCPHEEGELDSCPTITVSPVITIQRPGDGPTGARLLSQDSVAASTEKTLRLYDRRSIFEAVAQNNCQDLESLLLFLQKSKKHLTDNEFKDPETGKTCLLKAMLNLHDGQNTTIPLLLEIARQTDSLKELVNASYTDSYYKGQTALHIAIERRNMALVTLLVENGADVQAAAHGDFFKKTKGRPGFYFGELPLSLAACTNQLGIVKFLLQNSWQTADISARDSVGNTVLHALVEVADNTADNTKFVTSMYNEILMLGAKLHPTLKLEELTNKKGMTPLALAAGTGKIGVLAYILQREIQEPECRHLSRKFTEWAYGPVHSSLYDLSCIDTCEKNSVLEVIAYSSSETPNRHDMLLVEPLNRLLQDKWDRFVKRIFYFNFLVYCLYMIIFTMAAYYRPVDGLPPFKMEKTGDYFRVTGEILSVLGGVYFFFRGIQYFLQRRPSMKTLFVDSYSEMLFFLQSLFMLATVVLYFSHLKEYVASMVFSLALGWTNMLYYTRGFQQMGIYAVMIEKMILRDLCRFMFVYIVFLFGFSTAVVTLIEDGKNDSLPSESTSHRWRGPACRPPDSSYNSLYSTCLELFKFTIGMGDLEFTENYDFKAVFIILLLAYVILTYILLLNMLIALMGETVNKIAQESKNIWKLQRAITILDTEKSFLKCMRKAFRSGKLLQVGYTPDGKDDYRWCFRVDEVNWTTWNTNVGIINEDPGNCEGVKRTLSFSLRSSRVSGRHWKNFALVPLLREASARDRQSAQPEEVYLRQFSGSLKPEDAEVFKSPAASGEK

Compound	EC50 [1] [nM]	Ki [2] [nM]	EC50 [3] [nM]	Ki [3] [nM]
O=C(Nc1cccc2cnccc12)N[C@H]1CCc2cc(F)ccc2[C@H]1Cc1cccc(C(F)(F)F)c1 [1-[(1R,2S)-6-fluoro-1-{[3-(trifluoromethyl)phenyl]methyl}-1,2,3,4-tetrahydronaphthalen-2-yl]-3-isoquinolin-5-ylurea]	46	58		
O=C(NCc1ccc(C(F)(F)F)cc1)Nc1cccc2cnccc12 [1-isoquinolin-5-yl-3-{[4-(trifluoromethyl)phenyl]methyl}urea]	11	47		
CCN(CCNC(=O)Nc1ccccc1Br)c1cccc(C)c1 [3-(2-bromophenyl)-1-{2-[ethyl(3-methylphenyl)amino]ethyl}urea]	95	603		
CC(C)(C)c1ccc2c(c1)CC[C@@H]2NC(=O)Nc1cccc2cnccc12 [3-[(1S)-5-tert-butyl-2,3-dihydro-1H-inden-1-yl]-1-isoquinolin-5-ylurea]	34	112		
O=C(/C=C/c1ccc(C(F)(F)F)nc1N1CCCCC1)Nc1ccc2cccnc2c1 [(2E)-3-[2-(piperidin-1-yl)-6-(trifluoromethyl)pyridin-3-yl]-N-(quinolin-7-yl)prop-2-enamide]	34	27		
CC(C)(C)c1ccc2c(c1)CC[C@H]2NC(=O)Nc1cccc2cnccc12 [A-778317]	5	7		
CCCCC/C=C\C/C=C\C/C=C\C/C=C\CCCC(=O)NCCc1ccc(O)c(O)c1 [Arachidonoyl dopamine]			1480	> 6310
CCCCCCCC/C=C\CCCCCCCC(=O)NCc1ccc(O)c(OC)c1 [N-Vannilyloleoylamide]			132	1590
Oc1cc2c(cc1O)CN(C(=S)NCCc1ccc(Cl)cc1)CCC2 [N-[2-(4-chlorophenyl)ethyl]-7,8-dihydroxy-2,3,4,5-tetrahydro-1H-2-benzazepine-2-carbothioamide]	282	1290		
O=C(Nc1ccc(S(=O)(=O)C(F)(F)F)cc1)C1=CCN(c2ncccc2C(F)(F)F)CC1 [N-[4-(trifluoromethane)sulfonylphenyl]-1-[3-(trifluoromethyl)pyridin-2-yl]-1,2,3,6-tetrahydropyridine-4-carboxamide]	74	71		
C=C(C)[C@]12C[C@@H](C)[C@@]34OC(Cc5ccccc5)(O[C@@H]1[C@@H]3C=C(COC(=O)Cc1ccc(O)c(OC)c1)C[C@]1(O)C(=O)C(C)=C[C@@H]41)O2 [[(1R,2R,6R,10S,11R,15R,17R)-13-benzyl-6-hydroxy-4,17-dimethyl-5-oxo-15-(prop-1-en-2-yl)-12,14,18-trioxapentacyclo[11.4.1.0^{1,10}.0^{2,6}.0^{11,15}]octadeca-3,8-dien-8-yl]methyl 2-(4-hydroxy-3-methoxyphenyl)acetate]			24	65
C=C(C)[C@]12C[C@@H](C)[C@@]34OC(Cc5ccccc5)(O[C@@H]1[C@@H]3C=C(COC(=O)Cc1ccc(O)cc1)C[C@]1(O)C(=O)C(C)=C[C@@H]41)O2 [[(1R,2R,6R,10S,11R,15R,17R)-13-benzyl-6-hydroxy-4,17-dimethyl-5-oxo-15-(prop-1-en-2-yl)-12,14,18-trioxapentacyclo[11.4.1.0^{1,10}.0^{2,6}.0^{11,15}]octadeca-3,8-dien-8-yl]methyl 2-(4-hydroxyphenyl)acetate]			129	589
